The data set in a line: solvent given as SMILES.
The mark [1] stands for this setting: in O=P(c1ccccc1)(c1ccccc1)c1ccc2oc3ccc(P(=O)(c4ccccc4)c4ccccc4)cc3c2c1.
The mark [2] stands for this setting: in c1cc(-n2c3ccccc3c3ccccc32)cc(-n2c3ccccc3c3ccccc32)c1.

As to `CN(C)c1ccc(/C=C2\CC/C(=C\c3ccc(C#N)cc3)C2=O)cc1`, the fluorescence lifetime (in C1CCOC1) stood at 0.18 ns; the fluorescence lifetime (in CC#N) amounted to 0.17 ns; the fluorescence lifetime (in CC(C)=O) was determined as 0.23 ns; the fluorescence lifetime (in CC(C)O) came to 0.21 ns; the fluorescence lifetime (in CCCCO) amounted to 0.22 ns; the fluorescence lifetime (in CCCCOC(C)=O) is 1.01 ns. This molecule also showed a fluorescence lifetime (in CCCO) of 0.18 ns; a fluorescence lifetime (in CCO) of 0.14 ns; a fluorescence lifetime (in CCOC(=O)c1ccccc1) of 1.24 ns; a fluorescence lifetime (in CCOC(C)=O) of 0.9 ns; a fluorescence lifetime (in CCOCC) of 0.89 ns; a fluorescence lifetime (in CN(C)C=O) of 0.18 ns. Also, the fluorescence lifetime runs as follows: (in CO) 0.13 ns; (in CS(C)=O) 0.19 ns; (in Cc1ccccc1) 0.56 ns; (in ClC(Cl)(Cl)Cl) 0.17 ns; (in ClC(Cl)Cl) 2.08 ns; (in ClCCl) 1.29 ns. Besides, the fluorescence lifetime is, setting by setting: (in Clc1ccccc1Cl) 2.18 ns; (in O=C1CCCC1) 0.31 ns; (in S=C=S) 0.28 ns; (in c1ccccc1) 0.76 ns; (in c1ccncc1) 0.41 ns.

`CC1=[N+]2C(=Cc3cccn3[B-]2(F)F)C=C1`: the fluorescence lifetime was 6.75 ns (in CCCCCC), 6.96 ns (in CO) and 6.2 ns (in ClCCl).

Consider `C=Cc1cc2cc3c(cc2oc1=O)OCO3`, for which, for the setting “in CC#N”, the fluorescence lifetime turned out to be 3.68 ns.

With `C[Si]1(C)c2ccc(C#Cc3ccccc3)cc2C=Cc2cc(C#Cc3ccccc3)ccc21`, where the note is “in ClCCl”, the fluorescence lifetime is 3.8 ns.

For the molecule `Cc1ccc(N(c2ccc(C)cc2)c2ccc3c4cccc5c(N(c6ccc(C)cc6)c6ccc(C)cc6)ccc(c6cccc2c63)c54)cc1`, for the setting “in ClCCl”, the fluorescence lifetime was 6.25 ns.

For `CN(C)c1ccc(C(=Cc2ccc(/C=C(\C#N)c3ccccc3)cc2)c2ccc(N(C)C)cc2)cc1`, where the note is “in C1CCOC1”, the fluorescence lifetime stood at 0.3 ns.

On to `CC1(C)c2ccccc2N(c2ccc3c(c2)c2cc(N4c5ccccc5C(C)(C)c5ccccc54)ccc2c2nc4ccccc4nc32)c2ccccc21`, for which the fluorescence lifetime (in c1cc(-c2cccc(-n3c4ccccc4c4ccccc43)c2)cc(-n2c3ccccc3c3ccccc32)c1) worked out at 58 ns.

With `COc1ccc2c(c1)sc1[n+]2[B-](F)(F)OC(c2ccc(N(C)C)cc2)=N1`, under “in Cc1ccccc1”, the fluorescence lifetime was 1.59 ns.

As to `CCCCCC(=O)c1c2c(c(C(=O)CCCCC)c3c1OC1(CCCC1)O3)OC1(CCCC1)O2`, the fluorescence lifetime was determined as 20.3 ns (in CC#N); 15.3 ns (in CCCCCC); 11.6 ns (in CCO); 5.9 ns (in CO); 24.4 ns (in ClCCl).

For the setting “in CC1CCCCC1”, `c12c3c4c5c1c1c6c7c2c2c8c3c3c9c4c4c%10c5c5c1c1c6c6c%11c%12c%13c%14c%15c%16c%17c%14c%14c%18c%13c%11c1c1c5c%10c5c(c%14c%10c%17c%11c%13c%16c%14c%16c%15c%12c%12c%16c(c2c7c%126)c2c8c3c(c%13c%142)c2c9c4c5c%10c%112)c%181` gave a fluorescence lifetime of 0.65 ns.

As for `CCCCCCCCCCCCN1C(=O)c2ccc3c4ccc5c6c(ccc(c7ccc(c2c37)C1=O)c64)C(=O)NC5=O`, the fluorescence lifetime (in CN(C)C=O) was 3 ns.

Where the note is “in ClC(Cl)Cl”, `O=c1oc2ccccc2cc1-c1cccc(-c2cc3ccccc3oc2=O)c1` gave a fluorescence lifetime of 0.4 ns.

For the setting “in Cc1ccccc1”, `CC(C)(C)c1ccc(-c2nnc(-c3c(-n4c5ccccc5c5ccccc54)c(-n4c5ccccc5c5ccccc54)c(-n4c5ccccc5c5ccccc54)c(-n4c5ccccc5c5ccccc54)c3-n3c4ccccc4c4ccccc43)o2)cc1` gave a fluorescence lifetime of 2.9 ns.

As for `Cc1ccc2c(c1)C1(c3ccccc3Oc3ccccc31)c1cc(C)ccc1N2c1ccc(-c2nc(-c3ccccc3)cc(-c3ccccc3)n2)cc1`, the fluorescence lifetime under setting [1] stood at 11 ns.

As for `Cc1cc(C)c(C2=C(c3c(C)sc(-c4ccc(-c5nc(-c6ccccc6)c(-c6ccccc6)[nH]5)cc4)c3C)C(F)(F)C(F)(F)C2(F)F)s1`, the fluorescence lifetime (in C1CCOC1) stood at 0.42 ns.

For the setting “in CS(C)=O”, `CCCCCCCCn1c2ccccc2c(=O)c2ccccc21` yielded a fluorescence lifetime of 7.96 ns.

`C(C#Cc1ccc2ccc3cccc4ccc1c2c34)#Cc1cccc2ccccc12`: the fluorescence lifetime reads like this: (in C1CCCCC1) 0.8 ns; (in CC#N) 1.2 ns; (in CO) 1.1 ns; (in ClCCl) 1.1 ns.

For the molecule `Cc1ccc(-c2nc(-c3ccc(-c4nc(-c5ccc(C)cc5)c(-c5ccc(C)cc5)[nH]4)cc3)[nH]c2-c2ccc(C)cc2)cc1`, where the note is “in CS(C)=O”, the fluorescence lifetime stood at 1.07 ns.

Regarding `CN1C(=CC2=C([O-])C(=CC3=[N+](C)c4ccccc4C3(C)C)C2=O)C(C)(C)c2cc(Cl)ccc21`, the fluorescence lifetime reads like this: (in CO) 0.2 ns; (in ClC(Cl)Cl) 1.05 ns.

Molecule `CCCCCCCCCCCCCCCCOc1cc(C#Cc2ccc3ccccc3c2-c2c(C#Cc3cc(OCCCCCCCCCCCCCCCC)c(C#Cc4ccc(C=C(C#N)C#N)cc4)cc3OCCCCCCCCCCCCCCCC)ccc3ccccc23)c(OCCCCCCCCCCCCCCCC)cc1C#Cc1ccc(C=C(C#N)C#N)cc1` gave a fluorescence lifetime (in Brc1ccccc1) of 2.8 ns; a fluorescence lifetime (in C1CCCCC1) of 2.02 ns; a fluorescence lifetime (in C1CCOC1) of 1.25 ns; a fluorescence lifetime (in C1COCCO1) of 3.06 ns; a fluorescence lifetime (in CCCCCC) of 2.15 ns; a fluorescence lifetime (in CCCCCCCCO) of 0.79 ns. The fluorescence lifetime by setting is: (in CCCCOCCCC) 2.74 ns; (in CCOC(C)=O) 1.51 ns; (in CCOCC) 3.29 ns; (in Cc1ccccc1) 2.59 ns; (in ClC(Cl)(Cl)Cl) 2.16 ns; (in ClC(Cl)Cl) 2.35 ns. Also, the fluorescence lifetime (in ClCCl) was 0.79 ns.

Regarding `CCCCCCCC(=O)Oc1ccc2c3cccc4c(OC(=O)CCCCCCC)ccc(c5cccc1c52)c43`, the fluorescence lifetime runs as follows: (in C1CCOC1) 4.35 ns; (in Cc1ccccc1) 3.72 ns; (in ClC(Cl)(Cl)Cl) 3.89 ns; (in ClC(Cl)Cl) 4.16 ns; (in ClCCl) 4.34 ns; (in c1ccncc1) 3.88 ns.

In turn, `Brc1ccc(-c2nc(-c3ccc(-c4nc(-c5ccc(Br)cc5)c(-c5ccc(Br)cc5)[nH]4)cc3)[nH]c2-c2ccc(Br)cc2)cc1` showed a fluorescence lifetime (in CS(C)=O) of 0.55 ns.

`C#CCNC1=C2C(C)=CC(C)=[N+]2[B-](F)(F)n2c(C)cc(C)c21`: the fluorescence lifetime (in C1CCCCC1) was found to be 1.78 ns; the fluorescence lifetime (in CC(C)=O) was found to be 0.61 ns; the fluorescence lifetime (in CCOC(C)=O) is 0.78 ns; the fluorescence lifetime (in CO) is 0.518 ns; the fluorescence lifetime (in OCC(F)(F)F) stood at 0.76 ns.

Molecule `Cc1cn(C(F)(F)F)c(=O)[nH]c1=O` yielded a fluorescence lifetime (in CC#N) of 0.0001 ns.

Under “in ClCCl”, `COc1ccc2cc(/C=C/C3=C4CCc5ccccc5C4=[O+][B-](F)(F)O3)ccc2c1` had a fluorescence lifetime of 1.6 ns.

For the setting “in Cc1ccccc1”, `CC(C)(C)c1ccc(C(C)(C)C)c(N2C(=O)c3cccc4c(-c5ccc(-c6ccc(N(c7ccccc7)c7ccccc7)cc6)s5)ccc(c34)C2=O)c1` showed a fluorescence lifetime of 2.6 ns.

Regarding `O=S(=O)(c1ccc(N2c3ccccc3N(c3ccccc3)c3ccccc32)cc1)c1ccc(N2c3ccccc3N(c3ccccc3)c3ccccc32)cc1`, the fluorescence lifetime is, setting by setting: (in Cc1ccccc1) 5.6 ns; under setting [2], 10 ns.

Molecule `CC(C)(C)c1ccc2c(c1)c1cc3c4cc(C(C)(C)C)ccc4c4c5c6ccc(C(C)(C)C)cc6c6cc7c8cc(C(C)(C)C)ccc8c8c2c1c(c34)c(c78)c65` had a fluorescence lifetime (in CCCCCC) of 0.61 ns, a fluorescence lifetime (in CCOCC) of 0.618 ns and a fluorescence lifetime (in Cc1ccccc1) of 0.606 ns.

As for `O=C(O)CCCOc1cc2ccc3cccc4ccc(c1)c2c34`, the fluorescence lifetime (in CO) is 59 ns.

Take `Cc1ccc2c(c1)C(c1ccccc1)(c1ccccc1)c1cc(C)ccc1N2c1ccc2c(c1)N(c1ccccc1)c1ccccc1B2c1c(C(C)C)cc(C(C)C)cc1C(C)C`: the fluorescence lifetime reads like this: (in Cc1ccccc1) 5.6 ns; under setting [1], 8.7 ns.

For the molecule `CC(=O)OC[C@@H]1O[C@H](N2C=CC3=Nc4nc(C)[n+](C)cc4CN3C2=O)[C@@H](O)[C@H]1O`, the fluorescence lifetime stood at 3.92 ns (in CC#N) and 1.04 ns (in O).

Regarding `CC1(C)CC[N+]2=c3c(cc4c(c31)Oc1cc3c(cc1C=4c1ccccc1C(=O)O)C(c1ccccc1C(=O)O)=c1cc4c5c(c1O3)C(C)(C)CC[N+]=5CCC4)CCC2`, for the setting “in ClC(Cl)Cl”, the fluorescence lifetime turned out to be 2.41 ns.

Turning to `COc1ccc(-c2csc(/C(C#N)=C/c3ccc(Cl)cc3Cl)n2)cc1`, the fluorescence lifetime (in CC#N) was 3.05 ns.

Consider `CC1(C)C(/C=C/C2=C(c3ccc(C(=O)O)cc3)C(=C/C=C3/N(CCCCS(=O)(=O)[O-])c4ccc(S(=O)(=O)[O-])cc4C3(C)C)/CCC2)=[N+](CCCCS(=O)(=O)[O-])c2ccc(S(=O)(=O)[O-])cc21`, for which the fluorescence lifetime reads like this: (in CC(C)=O) 1.02 ns; (in CCO) 1 ns; (in CO) 0.81 ns; (in CS(C)=O) 1.33 ns; (in O) 0.44 ns.

For the molecule `Oc1cc2ccc3cc(O)cc4ccc(c1)c2c34`, the fluorescence lifetime (in CO) stood at 29 ns.

Turning to `CNC1=C2C=CC=[N+]2[B-](F)(F)n2cccc21`, the fluorescence lifetime (in C1CCCCC1) came to 4.67 ns; the fluorescence lifetime (in CC(C)=O) was 0.726 ns; the fluorescence lifetime (in CCO) is 0.774 ns; the fluorescence lifetime (in CCOC(C)=O) was determined as 2.04 ns; the fluorescence lifetime (in CO) was 0.523 ns; the fluorescence lifetime (in OCC(F)(F)F) turned out to be 1.4 ns.

`CC1(C)c2ccccc2N(c2ccccc2)c2ccc(-c3ccc(C(=O)c4ccc(-c5ccc6c(c5)C(C)(C)c5ccccc5N6c5ccccc5)cc4)cc3)cc21` came in with a fluorescence lifetime (in O=P(c1ccccc1)(c1ccccc1)c1ccccc1Oc1ccccc1P(=O)(c1ccccc1)c1ccccc1) of 1.87 ns.

Consider `c1ccc(-c2nnc(-c3ccc(N4c5ccccc5N(c5ccccc5)c5ccccc54)cc3)o2)cc1`, for which the fluorescence lifetime by setting is: (in Cc1ccccc1) 9 ns; under setting [2], 7 ns.

Under “in ClCCl”, `CC(C)(C)NC(=O)c1ccc(-c2ccc(N3c4ccccc4Oc4ccccc43)cc2)c2ccc3c4ccc(F)cc4c4cc(F)ccc4c3c12` had a fluorescence lifetime of 89.3 ns.

The molecule `O=C([O-])COc1cc(NC(=O)c2ccc(-c3c4cc(Cl)c(=O)cc-4oc4cc(O)c(Cl)cc34)c(C(=O)[O-])c2)ccc1N(CC(=O)[O-])CC(=O)[O-]` registered a fluorescence lifetime (in O) of 1.21 ns.

In turn, `COc1ccc(OC)cc1` yielded a fluorescence lifetime (in C1CCCCC1) of 3.8 ns.

For the origin of these results see the Deep4Chem optical property database.
